Source: patent publication US8303960B2, “Radiolabeled affibody molecules” (The United States of America, as represented by the …, priority 2007, dated 2012)
Several values for one entry are separate records, joined by “and”; a condition that tells them apart may be missing. Equal entries are not always repeated.

Key:
Assay type in all cases: in vivo, mice
HER2 [1] = test: Ex-vivo ELISA of tumor tissue lysates after 17-DMAG treatment
Protocol: (§1) Mice bearing BT-474 or MCF7/clone18 subcutaneous tumors are treated with two doses (30-50 mg/kg, 12 or 24 h apart) of 17-DMAG. Animals (n=4-6) are scanned before, 36 h, and 84 h after the treatment. Immediately after the last scan, the animals are euthanized, and the tumors are frozen for further analysis. HER2 expression in the tumors is then measured ex-vivo by western blot (Table 2) and ELISA (Table 3).

HER2 [2] = test: Ex-vivo western blot of tumor tissue lysates after 17-DMAG treatment; conditions: for HER2 western blot signal, fraction of control lane (in parentheses): lane (3) relative to lane (1); for HER2 western blot, mean intensity of the signal: after 17-DMAG
Protocol: as §1

HER2 [3] = test: PET imaging of ^18F-ZHER2-affibody tumor uptake before and after 17-DMAG; conditions: 84 h post-treatment; BT-474 and MCF7/clone 18 tumors
Protocol: as §1, with “3). In animals treated with 17-DMAG, the accumulation of radioactivity estimated by PET imaging decreases 50-70% at 84 h post-treatment (FIGS. 11 and 12). This change is confirmed by the biodistribution studies, see, e.g., FIG. 13.” for “3).”

In the case of CO[C@H]1/C=C\C=C(/C)C(=O)NC2=CC(=O)C(NCCN(C)C)=C(C[C@@H](C)C[C@H](OC)[C@H](O)[C@@H](C)/C=C(\C)[C@@H]1OC(N)=O)C2=O [17-DMAG, 17-dimethylaminoethylamino-17-demethoxygeldanamycin], the “HER2 in tissue lysate (ELISA)” value (HER2 [1]; BT-474 tumor after 17-DMAG, Trial 1) is reported as 541.41 fmol/mg protein, the “HER2 in tissue lysate (ELISA)” value (HER2 [1]; BT-474 tumor after 17-DMAG, Trial 2) is reported as 504.86 fmol/mg protein and the “HER2 (ELISA), fraction of untreated control (in parentheses)” value (from here on “HER2 (ELISA), fraction”) (HER2 [1]; BT-474 tumor, Trial 1) is reported as “(0.35)”. For the same compound, the “HER2 (ELISA), fraction” value (HER2 [1]; BT-474 tumor, Trial 2) was “(0.30)”, the “HER2 in tissue lysate (ELISA)” value (HER2 [1]; MCF7/clone 18 tumor after 17-DMAG, Trial 1) was 602.19 fmol/mg protein and the “HER2 in tissue lysate (ELISA)” value (HER2 [1]; MCF7/clone 18 tumor after 17-DMAG, Trial 2) was 516.77 fmol/mg protein. The “HER2 (ELISA), fraction” value (HER2 [1]; MCF7/clone 18 tumor, Trial 1) was “(0.43)”, the “HER2 (ELISA), fraction” value (HER2 [1]; MCF7/clone 18 tumor, Trial 2) was “(0.36)” and the “HER2 western blot signal, fraction of control lane (in parentheses)” value (HER2 [2]; dry transfer) was “(0.36)”. The “HER2 western blot, mean intensity of the signal” value (HER2 [2]; dry transfer, lane (3)) was 43.24 DU, the “HER2 western blot, mean intensity of the signal” value (HER2 [2]; dry transfer, lanes (5) and (6)) was 99.85 DU and 88.68 DU and the “decrease of HER2 expression” value (HER2 [2]; ex vivo analysis of tumor samples by western blots and ELISA) was 50-70%. The “HER2 western blot signal, fraction of control lane (in parentheses)” value (HER2 [2]; wet transfer) was “(0.34)”, the “HER2 western blot, mean intensity of the signal” value (HER2 [2]; wet transfer, lane (3)) was 83.08 DU and the “HER2 western blot, mean intensity of the signal” value (HER2 [2]; wet transfer, lanes (5) and (6)) was 187.69 DU and 156.39 DU. The “decrease of accumulation of radioactivity estimated by PET imaging” value (HER2 [3]) was 50-70%.
